We go through eleven compounds from ChEMBL document CHEMBL3352247, “Synthesis and antimycobacterial evaluation of 5-alkylamino-N-phenylpyrazine-2-carboxamides” (Bioorg Med Chem, 2015).

One test has as its system Candida tropicalis. In words: Antifungal activity against Candida tropicalis 156 after 24 to 48 hrs by two-fold dilution method. It is filed as functional, organism-based.
The test system of the next test is Escherichia coli. Put plainly: Antibacterial activity against Escherichia coli CCM 4517 after 24 to 48 hrs by broth microdilution method. In kind it is functional, organism-based.
The test system of another test is Aspergillus fumigatus. In words: Antifungal activity against Aspergillus fumigatus 231 after 24 to 48 hrs by two-fold dilution method. In kind it is functional, organism-based.
Another test concerns Nakaseomyces glabratus. In words: Antifungal activity against Candida glabrata 20/I after 24 to 48 hrs by two-fold dilution method. In kind it is functional, organism-based.
In test [1] the test system is Trichophyton mentagrophytes. Put plainly: Antifungal activity against Trichophyton mentagrophytes 445 after 72 to 120 hrs by two-fold dilution method. In kind it is functional, organism-based.
The subject of test [2] is Staphylococcus aureus. Put plainly: Antibacterial activity against Staphylococcus aureus CCM 4516/08 after 24 to 48 hrs by broth microdilution method. It is filed as functional, organism-based.
For test [3], the system named is Mycobacterium tuberculosis. Put plainly: Antimycobacterial activity against Mycobacterium tuberculosis H37Rv CNCTC My 331/88 after 10 to 14 days by AlamarBlue assay. In kind it is functional.
Test [4] is described as follows: Antimycobacterial activity against Mycobacterium avium subsp. avium Chester CNCTC My 80/72 after 5 days by AlamarBlue assay. In kind it is functional. As to conditions: Chester CNCTC My 80/72, 120 h. In general terms: The colour change of resazurin is a common sign of viable cells or microbes.
Another test relates to Candida albicans. Put plainly: Antifungal activity against Candida albicans ATCC 44859 after 24 to 48 hrs by two-fold dilution method. In kind it is functional, organism-based.
Test [5] concerns Klebsiella pneumoniae. In words: Antibacterial activity against ESBL-positive Klebsiella pneumoniae J 14368/08 clinical isolate after 24 to 48 hrs by broth microdilution method. It is filed as functional, organism-based. (In general: Broth dilution looks for growth in wells or tubes with falling amounts of substance.)
For the next test, the system named is Pichia kudriavzevii. In words: Antifungal activity against Candida krusei E28 after 24 to 48 hrs by two-fold dilution method. In kind it is functional, organism-based.
Test [6] deals with Staphylococcus epidermidis. In words: Antibacterial activity against Staphylococcus epidermidis H 6966/08 clinical isolate after 24 to 48 hrs by broth microdilution method. It is filed as functional, organism-based.
The test system of test [7] is Mycobacterium kansasii. Put plainly: Antimycobacterial activity against Mycobacterium kansasii CNCTC My 235/80 after 5 to 7 days by AlamarBlue assay. In kind it is functional.
A further test deals with Lichtheimia corymbifera. Put plainly: Antifungal activity against Absidia corymbifera 272 after 24 to 48 hrs by two-fold dilution method. It is filed as functional, organism-based.
The test system of another test is Trichosporon asahii. Put plainly: Antifungal activity against Trichosporon asahii 1188 after 24 to 48 hrs by two-fold dilution method. It is filed as functional, organism-based.
The next test deals with Pseudomonas aeruginosa. In words: Antibacterial activity against Pseudomonas aeruginosa CCM 1961 after 24 to 48 hrs by broth microdilution method. It is filed as functional, organism-based.
Test [8] deals with Enterococcus sp. Put plainly: Antibacterial activity against Enterococcus sp. J 14365/08 clinical isolate after 24 to 48 hrs by broth microdilution method. It is filed as functional, organism-based.
Test [9] deals with Klebsiella pneumoniae. In words: Antibacterial activity against Klebsiella pneumoniae D 11750/08 clinical isolate after 24 to 48 hrs by broth microdilution method. In kind it is functional, organism-based.
The subject of test [10] is Enterococcus sp. In words: Antibacterial activity against Enterococcus sp. after 24 to 48 hrs by broth microdilution method. It is filed as functional.
The subject of test [11] is Staphylococcus aureus. Put plainly: Antibacterial activity against methicillin-resistant Staphylococcus aureus H 5996/08 clinical isolate after 24 to 48 hrs by broth microdilution method. It is filed as functional, organism-based.
Test [12] can be described thus: Antimycobacterial activity against Mycobacterium avium subsp. avium Chester CNCTC My 80/72 in Middlebrook 7H9 broth after 5 days by AlamarBlue assay. It is filed as functional. As to conditions: Chester CNCTC My 80/72, 120 h.
In test [13] the test system is Mycobacterium tuberculosis. Put plainly: Antimycobacterial activity against Mycobacterium tuberculosis H37Rv CNCTC My 331/88 in Middlebrook 7H9 broth after 5 days by AlamarBlue assay. In kind it is functional. As to conditions: H37Rv CNCTC My 331/88, 120 h.
Test [14] deals with Mycobacterium kansasii. Put plainly: Antimycobacterial activity against Mycobacterium kansasii CNCTC My 235/80 in Middlebrook 7H9 broth after 5 days by AlamarBlue assay. It is filed as functional. The conditions noted are these: CNCTC My 235/80, 120 h.

Converted amounts (≈) assume the structure as drawn. The source made the active and inactive calls.

As for `CCCNc1cnc(C(=O)Nc2ccccc2Cl)cn1`, the outcome (with Candida tropicalis; with Escherichia coli; with Aspergillus fumigatus; in the test on Nakaseomyces glabratus; in test [1]; with Staphylococcus aureus [2]) was inactive. Also, the outcome (in the test on Candida albicans; in the test with Klebsiella pneumoniae [5]; in the test with Pichia kudriavzevii; in [6]; with Lichtheimia corymbifera; in the test with Trichosporon asahii) was inactive. Also, the result in the test with Pseudomonas aeruginosa, in the test with Enterococcus sp. [8], with Klebsiella pneumoniae [9] and in the test with Staphylococcus aureus [11] was inactive. For the same compound, the MIC (in test [3]; in test [4]; in the test on Mycobacterium kansasii [7]) was greater than 100 µg/mL in each case. Also, the outcome in the test on Enterococcus sp. [10] was Active.
Consider `CCCCCNc1cnc(C(=O)Nc2ccccc2)cn1`, for which the outcome (in the test with Candida tropicalis; with Escherichia coli; in the test on Aspergillus fumigatus; in the test on Nakaseomyces glabratus; in test [1]; in the test on Staphylococcus aureus [2]) was inactive. In addition, the outcome (with Candida albicans; in the test with Klebsiella pneumoniae [5]; with Pichia kudriavzevii; in test [6]; in the test on Lichtheimia corymbifera; in the test on Trichosporon asahii) was inactive. The result in the test on Pseudomonas aeruginosa, in the test with Enterococcus sp. [8], in the test with Klebsiella pneumoniae [9] and with Staphylococcus aureus [11] was inactive. In addition, the MIC is 11 µM in [3], greater than 100 µg/mL in [4] and 11 µM against Mycobacterium kansasii [7]. Also, the result with Enterococcus sp. [10] was Active.
Regarding `NC(=O)c1cnccn1` [PYRAZINAMIDE], the MIC was 50.8 µM in test [3], greater than 100 µg/mL in [4] and greater than 100 µg/mL in the test with Mycobacterium kansasii [7].
For `CCCCCCNc1cnc(C(=O)Nc2ccccc2Cl)cn1`, the result (with Candida tropicalis; in the test with Escherichia coli; with Aspergillus fumigatus; in the test on Nakaseomyces glabratus; in test [1]; in the test with Staphylococcus aureus [2]) was inactive. Further, the outcome (with Candida albicans; in the test with Klebsiella pneumoniae [5]; with Pichia kudriavzevii; in test [6]; in the test on Lichtheimia corymbifera; in the test with Trichosporon asahii) was inactive. Further, the outcome in the test with Pseudomonas aeruginosa, in the test with Enterococcus sp. [8], in the test with Klebsiella pneumoniae [9] and in the test on Staphylococcus aureus [11] was inactive. Further, the MIC (in [3]; in test [4]; in the test with Mycobacterium kansasii [7]) was greater than 100 µg/mL in each case. In the test with Enterococcus sp. [10], the outcome was Active.
As to `CCCCNc1cnc(C(=O)Nc2ccccc2Cl)cn1`, the result (in the test on Candida tropicalis; in the test on Escherichia coli; with Aspergillus fumigatus; in the test on Nakaseomyces glabratus; in test [1]; in the test with Staphylococcus aureus [2]) was inactive. In addition, the outcome (in the test with Candida albicans; with Klebsiella pneumoniae [5]; in the test with Pichia kudriavzevii; in [6]; with Lichtheimia corymbifera; in the test on Trichosporon asahii) was inactive. The result in the test with Pseudomonas aeruginosa, in the test on Enterococcus sp. [8], with Klebsiella pneumoniae [9] and in the test on Staphylococcus aureus [11] was inactive. In addition, the MIC in [3] is greater than 100 µg/mL; in [4], greater than 100 µg/mL; against Mycobacterium kansasii [7] it was greater than 100 µg/mL; with Enterococcus sp. [10] it was 62.5 µM (≈ 19 µg/mL).
`CCCCCCCCNc1cnc(C(=O)Nc2ccccc2Cl)cn1`: the result (in the test on Candida tropicalis; in the test on Escherichia coli; with Aspergillus fumigatus; in the test with Nakaseomyces glabratus; in test [1]; with Staphylococcus aureus [2]) was inactive. For the same compound, the result (with Candida albicans; in the test on Klebsiella pneumoniae [5]; in the test with Pichia kudriavzevii; in test [6]; in the test on Lichtheimia corymbifera; with Trichosporon asahii) was inactive. Also, the outcome with Pseudomonas aeruginosa, in the test with Enterococcus sp. [8], with Klebsiella pneumoniae [9] and with Staphylococcus aureus [11] was inactive. Moreover, the MIC (in test [3]; in test [4]; in the test with Mycobacterium kansasii [7]) was greater than 25 µg/mL throughout. Besides, the outcome with Enterococcus sp. [10] was Active.
For the compound `CCCCCNc1cnc(C(=O)Nc2ccccc2Cl)cn1`, the result (with Candida tropicalis; with Escherichia coli; in the test on Aspergillus fumigatus; with Nakaseomyces glabratus; in test [1]; with Staphylococcus aureus [2]) was inactive. Moreover, the result (in the test on Candida albicans; in the test with Klebsiella pneumoniae [5]; in the test on Pichia kudriavzevii; in test [6]; in the test on Lichtheimia corymbifera; with Trichosporon asahii) was inactive. Further, the result with Pseudomonas aeruginosa, with Enterococcus sp. [8], in the test with Klebsiella pneumoniae [9] and with Staphylococcus aureus [11] was inactive. The MIC (in test [3]; in test [4]; with Mycobacterium kansasii [7]) was greater than 100 µg/mL throughout. Besides, in the test on Enterococcus sp. [10], the outcome was Active.
For `CCCNc1cnc(C(=O)Nc2ccccc2)cn1`, the outcome (in the test on Candida tropicalis; in the test with Escherichia coli; in the test with Aspergillus fumigatus; in the test on Nakaseomyces glabratus; in test [1]; with Staphylococcus aureus [2]) was inactive. In addition, the outcome (in the test on Candida albicans; in the test on Klebsiella pneumoniae [5]; in the test on Pichia kudriavzevii; in test [6]; in the test with Lichtheimia corymbifera; in the test on Trichosporon asahii) was inactive. The result with Pseudomonas aeruginosa, with Enterococcus sp. [8], with Klebsiella pneumoniae [9] and in the test on Staphylococcus aureus [11] was inactive. Moreover, the MIC in test [3] is 12.2 µM; in test [4] it was greater than 100 µg/mL; with Mycobacterium kansasii [7] it was 48.8 µM. Moreover, the result in the test with Enterococcus sp. [10] was Active.
For the compound `NNC(=O)c1ccncc1` [ISONIAZID], the MIC in test [3] was 1.5 µM; in test [4] it was 12.5 µg/mL (≈ 91.1 µM); with Mycobacterium kansasii [7], 11.4 µM.
`O=C(Nc1ccccc1Cl)c1cnc(Cl)cn1`: the MIC in [3] is 2 µM; in test [4] it was greater than 100 µg/mL.
With `O=C(Nc1ccccc1Cl)c1cnc(NCCCc2ccccc2)cn1`, the outcome (with Candida tropicalis; in the test with Escherichia coli; in the test with Aspergillus fumigatus; with Nakaseomyces glabratus; in [1]; in the test with Staphylococcus aureus [2]) was inactive. For the same compound, the outcome (with Candida albicans; in the test with Klebsiella pneumoniae [5]; in the test with Pichia kudriavzevii; in [6]; in the test with Lichtheimia corymbifera; in the test on Trichosporon asahii) was inactive. Also, the outcome with Pseudomonas aeruginosa, with Enterococcus sp. [8], in the test with Klebsiella pneumoniae [9] and in the test on Staphylococcus aureus [11] was inactive. In addition, the MIC (in test [12]; in test [13]; in the test on Mycobacterium kansasii [14]) was greater than 100 µg/mL throughout.

By MIC is commonly meant the smallest concentration in the dilution series that meets the test's criterion for growth inhibition. Higher therefore signals a less susceptible organism.
